Test results taken from the NIST ThermoML archive (doi:10.1021/acs.jced.8b00975).
± gives the expanded uncertainty stated by the source.

Assay: xn = mol fraction of the nth substance listed
Settings: 313.15 K, Liquid, Vibrating tube method

C=C(C)C(=O)OCCN(C)C [2-(dimethylamino)ethyl methylpropenoate] + CCCO
mass density [kg/m3]
Settings | 5000 kPa | 10000 kPa | 15000 kPa | 20000 kPa | 25000 kPa | 30000 kPa | 35000 kPa
x1 = 0.0303 | – | 805.58 ± 0.54 | 809.4 ± 0.55 | 813.02 ± 0.56 | 816.51 ± 0.58 | 819.93 ± 0.59 | 823.33 ± 0.61
x1 = 0.0602 | – | 814.02 ± 0.54 | 817.86 ± 0.55 | 821.5 ± 0.56 | 825 ± 0.57 | 828.39 ± 0.59 | 831.72 ± 0.6
x1 = 0.1007 | – | 824.41 ± 0.54 | 828.2 ± 0.55 | 831.83 ± 0.56 | 835.35 ± 0.57 | 838.78 ± 0.58 | 842.17 ± 0.59
x1 = 0.2003 | – | 846.16 ± 0.53 | 849.93 ± 0.54 | 853.55 ± 0.55 | 857.04 ± 0.56 | 860.44 ± 0.57 | 863.76 ± 0.58
x1 = 0.2989 | – | 863.14 ± 0.53 | 866.94 ± 0.54 | 870.58 ± 0.55 | 874.08 ± 0.56 | 877.48 ± 0.57 | 880.8 ± 0.57
x1 = 0.4005 | – | 877.16 ± 0.54 | 880.94 ± 0.54 | 884.58 ± 0.55 | 888.1 ± 0.56 | 891.52 ± 0.56 | 894.87 ± 0.57
x1 = 0.4513 | – | 883.11 ± 0.54 | 886.91 ± 0.54 | 890.57 ± 0.55 | 894.1 ± 0.56 | 897.51 ± 0.56 | 900.82 ± 0.57
x1 = 0.5026 | – | 888.5 ± 0.54 | 892.29 ± 0.54 | 895.96 ± 0.55 | 899.51 ± 0.56 | 902.95 ± 0.56 | 906.3 ± 0.57
x1 = 0.5521 | – | 893.33 ± 0.54 | 897.12 ± 0.54 | 900.78 ± 0.55 | 904.32 ± 0.55 | 907.74 ± 0.56 | 911.06 ± 0.57
x1 = 0.6025 | 893.77 ± 0.53 | 897.71 ± 0.54 | 901.52 ± 0.54 | 905.22 ± 0.55 | 908.79 ± 0.55 | 912.25 ± 0.56 | 915.59 ± 0.56
x1 = 0.6976 | 901.19 ± 0.53 | 905.15 ± 0.54 | 908.97 ± 0.55 | 912.65 ± 0.55 | 916.22 ± 0.56 | 919.67 ± 0.56 | 923.02 ± 0.56
x1 = 0.8037 | 908.07 ± 0.54 | 912.04 ± 0.54 | 915.87 ± 0.55 | 919.56 ± 0.55 | 923.14 ± 0.56 | 926.61 ± 0.56 | 929.99 ± 0.57
x1 = 0.9043 | 913.62 ± 0.54 | 917.61 ± 0.55 | 921.46 ± 0.55 | 925.17 ± 0.56 | 928.79 ± 0.56 | 932.32 ± 0.57 | 935.78 ± 0.57
x1 = 0.933 | 914.96 ± 0.54 | 918.95 ± 0.55 | 922.81 ± 0.56 | 926.56 ± 0.56 | 930.22 ± 0.56 | 933.79 ± 0.57 | 937.29 ± 0.57
x1 = 0.9605 | 916.36 ± 0.55 | 920.35 ± 0.55 | 924.21 ± 0.56 | 927.96 ± 0.56 | 931.63 ± 0.57 | 935.23 ± 0.57 | 938.78 ± 0.57
